Measurements taken from ChEMBL document CHEMBL2073866, “Cellular pharmacokinetic aspects of reversal effect of itraconazole on P-glycoprotein-mediated resistance of anticancer drugs” (Biol Pharm Bull, 1999).

Experiments:
[1] = target: T1, ATP-dependent translocase ABCB1 (Homo sapiens, UniProt P08183); experiment: TP_TRANSPORTER: inhibition of Azidopine photoaffinity labelling in membranes from MDR1-expressing LLC-PK1 cells; type: functional, cell membranes, Membrane; conditions: pig
[2] = target: T1, ATP-dependent translocase ABCB1; experiment: TP_TRANSPORTER: inhibition of Digoxin transepithelial transport (basal to apical) (Digoxin: 0.1 uM, Itraconazole: 100 uM) in MDR1-expressing LLC-PK1 cells; type: functional, cell-based; conditions: pig, llc-pk1, 100 µM
[3] = target: T1, ATP-dependent translocase ABCB1; experiment: TP_TRANSPORTER: inhibition of Doxorubicin transepithelial transport (basal to apical) (Doxorubicin: 0.1 uM, Itraconazole: 100 uM) in MDR1-expressing LLC-PK1 cells; type: functional, cell-based; conditions: pig, llc-pk1, 100 µM
[4] = target: T1, ATP-dependent translocase ABCB1; experiment: TP_TRANSPORTER: inhibition of Vinblastine transepithelial transport (basal to apical) (Vinblastine: 0.1 uM, Itraconazole: 100 uM) in MDR1-expressing LLC-PK1 cells; type: functional, cell-based; conditions: pig, llc-pk1, 100 µM
[5] = target: T1, ATP-dependent translocase ABCB1; experiment: TP_TRANSPORTER: inhibition of Azidopine photoaffinity labelling (Azidopine: 0.4 uM, Daunorubicin: 400 uM) in membranes from MDR1-expressing LLC-PK1 cells; type: functional, cell membranes, Membrane; conditions: pig, llc-pk1, 400 µM
[6] = target: T1, ATP-dependent translocase ABCB1; experiment: TP_TRANSPORTER: transepithelial transport (basal to apical) in MDR1-expressing LLC-PK1 cells; type: functional, cell-based; conditions: pig
[7] = target: T1, ATP-dependent translocase ABCB1; experiment: TP_TRANSPORTER: inhibition of Azidopine photoaffinity labelling (Azidopine: 0.4 uM, Doxorubicin: 400 uM) in membranes from MDR1-expressing LLC-PK1 cells; type: functional, cell membranes, Membrane; conditions: pig, llc-pk1, 400 µM
[8] = target: T1, ATP-dependent translocase ABCB1; experiment: TP_TRANSPORTER: inhibition of Azidopine photoaffinity labelling (Azidopine: 0.4 uM, Vinblastine: 400 uM) in membranes from MDR1-expressing LLC-PK1 cells; type: functional, cell membranes, Membrane; conditions: pig, llc-pk1, 400 µM

T1 sequence (P08183 whole entry): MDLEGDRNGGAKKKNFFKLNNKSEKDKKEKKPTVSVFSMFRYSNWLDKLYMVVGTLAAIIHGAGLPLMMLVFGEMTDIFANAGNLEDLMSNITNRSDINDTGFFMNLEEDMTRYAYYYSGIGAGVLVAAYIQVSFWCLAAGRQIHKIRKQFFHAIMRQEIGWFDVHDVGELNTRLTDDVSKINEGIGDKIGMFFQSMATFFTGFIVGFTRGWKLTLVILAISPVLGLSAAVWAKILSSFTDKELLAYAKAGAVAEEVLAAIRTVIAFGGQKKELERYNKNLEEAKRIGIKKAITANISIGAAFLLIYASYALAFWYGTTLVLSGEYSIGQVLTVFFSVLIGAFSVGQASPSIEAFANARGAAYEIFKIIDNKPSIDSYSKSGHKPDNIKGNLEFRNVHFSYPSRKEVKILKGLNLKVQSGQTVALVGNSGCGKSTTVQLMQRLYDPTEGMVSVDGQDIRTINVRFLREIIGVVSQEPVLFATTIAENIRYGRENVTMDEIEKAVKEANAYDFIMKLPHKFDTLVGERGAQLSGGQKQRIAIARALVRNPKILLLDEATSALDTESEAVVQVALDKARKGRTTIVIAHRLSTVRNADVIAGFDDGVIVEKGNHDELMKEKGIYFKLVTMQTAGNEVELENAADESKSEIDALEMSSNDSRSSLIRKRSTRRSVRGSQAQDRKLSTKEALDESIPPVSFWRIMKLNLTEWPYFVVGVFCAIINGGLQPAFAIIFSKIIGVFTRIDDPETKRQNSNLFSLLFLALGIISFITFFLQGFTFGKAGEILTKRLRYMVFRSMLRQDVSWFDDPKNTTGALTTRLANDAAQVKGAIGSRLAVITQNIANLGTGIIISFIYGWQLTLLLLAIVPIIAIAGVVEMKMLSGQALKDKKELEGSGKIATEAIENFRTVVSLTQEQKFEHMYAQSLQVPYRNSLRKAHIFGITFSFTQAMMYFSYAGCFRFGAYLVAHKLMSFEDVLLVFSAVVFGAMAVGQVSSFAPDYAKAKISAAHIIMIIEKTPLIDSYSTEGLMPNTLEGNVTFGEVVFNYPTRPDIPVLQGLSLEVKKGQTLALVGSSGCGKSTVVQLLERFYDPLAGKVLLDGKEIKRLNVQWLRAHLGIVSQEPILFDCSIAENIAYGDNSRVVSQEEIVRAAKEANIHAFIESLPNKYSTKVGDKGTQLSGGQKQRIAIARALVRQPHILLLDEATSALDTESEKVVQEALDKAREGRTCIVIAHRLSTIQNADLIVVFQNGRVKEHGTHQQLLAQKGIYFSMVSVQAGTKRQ

CCC(C)n1ncn(-c2ccc(N3CCN(c4ccc(OCC5COC(Cn6cncn6)(c6ccc(Cl)cc6Cl)O5)cc4)CC3)cc2)c1=O (stereo not drawn) [ITRACONAZOLE]
Activity [1]: inhibitor [+]
Activity [2]: inhibitor [+]
Activity [3]: inhibitor [+]
Activity [4]: inhibitor [+]

COc1cccc2c1C(=O)c1c(O)c3c(c(O)c1C2=O)C[C@@](O)(C(C)=O)C[C@@H]3O[C@H]1C[C@H](N)[C@H](O)[C@H](C)O1 [DAUNORUBICIN]
Activity [5]: inhibitor [+]
Activity [6]: substrate [+]

COc1cccc2c1C(=O)c1c(O)c3c(c(O)c1C2=O)C[C@@](O)(C(=O)CO)C[C@@H]3O[C@H]1C[C@H](N)[C@H](O)[C@H](C)O1 [DOXORUBICIN]
Activity [7]: inhibitor [+]

CC[C@]1(O)C[C@@H]2CN(CCc3c([nH]c4ccccc34)[C@@](C(=O)OC)(c3cc4c(cc3OC)N(C)[C@H]3[C@@](O)(C(=O)OC)[C@H](OC(C)=O)[C@]5(CC)C=CCN6CC[C@]43[C@@H]65)C2)C1 [VINBLASTINE]
Activity [8]: inhibitor [+]
